Entries after “also recorded” stand apart in the source; their conditions may differ.
What was measured:
[1] = tested on: NGF-dependent PC12 cell differentiation; test: PC12 NGF-dependent neurite outgrowth; assay type: cell-based; settings: 500 pM NGF; for IC50: read-out: IC50 PC12 neurite outgrowth, 72 h, 100 μmol/L to 31.6 nmol/L, n = 3
PC12 cells = test: PC12 toxicity assay; assay type: cell-based; settings: 100 μmol/L, 72 h, absence of NGF
Mouse NGF = Mouse NGF (Mus musculus, UniProt P01139); test: SPR binding affinity of analogs to immobilized NGF; settings: read-out: KD, binding affinity to immobilized NGF, two-site steady-state analysis, 0.70-200 μmol/L, 25 °C, mean of triplicate
Sequence of Mouse NGF (P01139 122-241): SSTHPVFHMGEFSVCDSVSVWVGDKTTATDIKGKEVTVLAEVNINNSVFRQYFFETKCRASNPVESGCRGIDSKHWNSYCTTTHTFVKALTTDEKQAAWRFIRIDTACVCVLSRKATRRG

immobilized TrkA = immobilized TrkA (Homo sapiens, UniProt P04629); test: SPR binding to immobilized TrkA
Sequence of immobilized TrkA (P04629 33-796): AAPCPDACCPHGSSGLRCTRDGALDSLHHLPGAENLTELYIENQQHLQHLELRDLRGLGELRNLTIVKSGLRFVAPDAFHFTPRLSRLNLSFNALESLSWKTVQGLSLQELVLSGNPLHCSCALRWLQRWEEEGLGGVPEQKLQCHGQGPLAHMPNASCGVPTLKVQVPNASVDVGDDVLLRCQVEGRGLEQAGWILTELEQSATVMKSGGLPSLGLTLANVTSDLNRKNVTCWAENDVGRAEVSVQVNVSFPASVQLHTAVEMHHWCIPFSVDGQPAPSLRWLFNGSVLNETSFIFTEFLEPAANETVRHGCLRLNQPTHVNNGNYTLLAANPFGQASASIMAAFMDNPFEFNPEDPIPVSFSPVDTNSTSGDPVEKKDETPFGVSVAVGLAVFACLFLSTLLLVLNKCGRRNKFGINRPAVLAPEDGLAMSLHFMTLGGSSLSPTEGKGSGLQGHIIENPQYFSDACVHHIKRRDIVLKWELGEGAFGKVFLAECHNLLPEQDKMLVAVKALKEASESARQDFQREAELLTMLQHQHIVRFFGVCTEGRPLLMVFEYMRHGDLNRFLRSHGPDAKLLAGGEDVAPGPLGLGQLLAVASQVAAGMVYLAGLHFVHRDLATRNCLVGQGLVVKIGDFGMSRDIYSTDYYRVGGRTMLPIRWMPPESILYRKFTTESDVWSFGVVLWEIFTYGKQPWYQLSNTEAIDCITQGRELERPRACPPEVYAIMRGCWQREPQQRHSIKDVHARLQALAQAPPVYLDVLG

Kd (Mouse NGF) [µM] | SMILES | NGF-mediated PC12 cell process formation ([1]; increasing concentrations 0-100 μmol/L) | PC12 cell count and morphology versus control (PC12 cells) | IC50 [1] [µM] | binding to immobilized TrkA (immobilized TrkA)
– | O=C(O)c1ccc(Cl)c(N2C(=O)c3ccc4c(=O)n5c6ccc([N+](=O)[O-])cc6nc5c5ccc(c3c45)C2=O)c1 [BVNP‐0197, 4‐Chloro‐3‐{6‐nitro‐11,16,18‐trioxo‐3,10,17‐triazahexacyclo[13.6.2.0^2,^10.0^4,^9.0^12,^22.0^19,^23]tricosa‐1(21),2,4,6,8,12,14,19,22‐nonaen‐17‐yl}benzoic acid] | significantly decreased | did not significantly differ from untreated cells | – | –
35.8 | Cn1c2ccc(NC(=O)c3ccccc3)cc2c(=O)n2nc(C(=O)O)cc12 [PD 90780, 7‐(benzolylamino)‐4,9‐dihydro‐4‐methyl‐9‐oxo‐pyrazolo[5,1‐b]quinazoline‐2‐carboxylic acid] | – | – | 33.2 | none showed binding; also recorded: do not bind to TrkA
32.4 | Cc1cc2nc3c(=O)[nH]c(=O)nc-3n(C)c2cc1C=O [Ro 08‐2750] | – | – | 12 | none showed binding; also recorded: do not bind to TrkA
